Reference: patent publication US9873690B2, “3-indol substituted derivatives, pharmaceutical compositions and methods for use” (Pfizer Inc., priority 2015, dated 2018)

Target: T1, hTDO2 (Homo sapiens, UniProt P48775)
T1 construct: endogenous in cells; host or cells: A172 human brain glioblastoma cells (ATCC CRL-1620)
Test: Cellular assay for TDO2 activity determination in A172 cells
Assay type: cell-based
Settings: human glioblastoma A172 cells naturally expressing hTDO2; overnight incubation; kynurenine by absorbance at 480 nm
How it was run: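 A172 glioblastoma cells endogenously expressing hTDO2, 1.25×10^4 cells/well, incubated overnight at 37 °C, 5% CO2 in IMDM with 2% FBS and ten compound concentrations. Supernatant kynurenine measured after TCA treatment and Ehrlich's reagent (4-dimethylaminobenzaldehyde) by absorbance at 480 nm against a kynurenine standard curve, then curve-fitted.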

T1 sequence (P48775 whole entry): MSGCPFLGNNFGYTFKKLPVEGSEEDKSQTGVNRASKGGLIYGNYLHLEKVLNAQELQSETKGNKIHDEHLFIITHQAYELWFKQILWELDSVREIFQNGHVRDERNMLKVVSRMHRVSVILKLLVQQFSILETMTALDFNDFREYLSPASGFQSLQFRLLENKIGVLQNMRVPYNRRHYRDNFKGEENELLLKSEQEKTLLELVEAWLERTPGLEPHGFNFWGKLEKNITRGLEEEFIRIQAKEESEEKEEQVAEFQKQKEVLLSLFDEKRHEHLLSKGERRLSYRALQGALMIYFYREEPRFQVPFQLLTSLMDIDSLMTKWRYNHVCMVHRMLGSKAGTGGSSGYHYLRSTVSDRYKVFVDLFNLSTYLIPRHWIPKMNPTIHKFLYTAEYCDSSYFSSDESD

| Compound | IC50 |
| --- | --- |
| NCC1NS(=O)(=O)c2ccc(-c3c[nH]c4cc(F)ccc34)cc21 (single isomer, unassigned; (-)) [Example 20, (−)-3-(aminomethyl)-5-(6-fluoro-1H-indol-3-yl)-2,3-dihydrobenzo[d]isothiazole 1,1-dioxide] | 430 nM |
| COC(=O)NCC1NS(=O)(=O)c2ccc(-c3c[nH]c4cc(F)ccc34)cc21 (single isomer, unassigned; (-)) [Example 21, (−)-methyl ((5-(6-fluoro-1H-indol-3-yl)-1,1-dioxido-2,3-dihydrobenzo[d]isothiazol-3-yl)methyl)carbamate] | 156 nM |
| CC(=O)NCC1NS(=O)(=O)c2ccc(-c3c[nH]c4cc(F)ccc34)cc21 (single isomer, unassigned; (-)) [Example 23, (−)-N-((5-(6-fluoro-1H-indol-3-yl)-1,1-dioxido-2,3-dihydrobenzo[d]isothiazol-3-yl)methyl)acetamide] | 1020 nM |
| CN(C)CC1NS(=O)(=O)c2ccc(-c3c[nH]c4cc(F)ccc34)cc21 (single isomer, unassigned; (-)) [Example 25, (−)-3-((dimethylamino)methyl)-5-(6-fluoro-1H-indol-3-yl)-2,3-dihydrobenzo[d]isothiazole 1,1-dioxide] | 4980 nM |
| CC(=O)N(C)CC1NS(=O)(=O)c2ccc(-c3c[nH]c4cc(F)ccc34)cc21 (single isomer, unassigned; (-)) [Example 28, (−)-N-((5-(6-fluoro-1H-indol-3-yl)-1,1-dioxido-2,3-dihydrobenzo[d]isothiazol-3-yl)methyl)-N-methylacetamide] | 505 nM |
| O=S1(=O)NC(CCO)c2cc(-c3c[nH]c4cc(F)ccc34)ccc21 (single isomer, unassigned; (-)) [Example 29, (−)-5-(6-fluoro-1H-indol-3-yl)-3-(2-hydroxyethyl)-2,3-dihydrobenzo[d]isothiazole 1,1-dioxide] | 126 nM |
| CNC(=O)CCN1C(C)c2cc(-c3c[nH]c4cc(F)ccc34)ccc2S1(=O)=O (single isomer, unassigned; (-)) [Example 46, (−)-3-(5-(6-fluoro-1H-indol-3-yl)-3-methyl-1,1-dioxidobenzo[d]isothiazol-2(3H)-yl)-N-methylpropanamide] | 328 nM |
| CC1c2cc(-c3c[nH]c4cc(F)ccc34)ccc2S(=O)(=O)N1CCC(N)=O (single isomer, unassigned; (-)) [Example 48, (−)-3-(5-(6-fluoro-1H-indol-3-yl)-3-methyl-1,1-dioxidobenzo[d]isothiazol-2(3H)-yl)propanamide] | 77 nM |
| CC1c2cc(-c3c[nH]c4cc(F)ccc34)ccc2S(=O)(=O)N1CCC(=O)N1CCNCC1 (single isomer, unassigned; (-)) [Example 50, (−)3-(5-(6-fluoro-1H-indol-3-yl)-3-methyl-1,1-dioxidobenzo[d]isothiazol-2(3H)-yl)-1-(piperazin-1-yl)propan-1-one] | 336 nM |
| CC1c2cc(-c3c[nH]c4cc(F)ccc34)ccc2S(=O)(=O)N1C1CCNCC1 (single isomer, unassigned; (-)) [Example 51, (−)-5-(6-fluoro-1H-indol-3-yl)-3-methyl-2-(piperidin-4-yl)-2,3-dihydrobenzo[d]isothiazole 1,1-dioxide] | 186 nM |
| CC1c2cc(-c3c[nH]c4cc(F)ccc34)ccc2S(=O)(=O)N1CCS(C)(=O)=O (single isomer, unassigned; (-)) [Example 54, (−)-5-(6-fluoro-1H-indol-3-yl)-3-methyl-2-(2-(methylsulfonyl)ethyl)-2,3-dihydrobenzo[d]isothiazole 1,1-dioxide] | 233 nM |
| CC1c2cc(-c3c[nH]c4cc(F)ccc34)ccc2S(=O)(=O)N1CC[S+](C)[O-] (single isomer, unassigned; (-)) [Example 56, (−)-5-(6-fluoro-1H-indol-3-yl)-3-methyl-2-(2-(methylsulfinyl)ethyl)-2,3-dihydrobenzo[d]isothiazole 1,1-dioxide] | 306 nM |
| CC1c2cc(-c3c[nH]c4cc(F)ccc34)ccc2S(=O)(=O)N1CC[S+](C)[O-] (single isomer, unassigned; (-)) [Example 57, (−)-5-(6-fluoro-1H-indol-3-yl)-3-methyl-2-(2-(methylsulfinyl)ethyl)-2,3-dihydrobenzo[d]isothiazole 1,1-dioxide] | 61 nM |
| CNS(=O)(=O)CCN1C(C)c2cc(-c3c[nH]c4cc(F)ccc34)ccc2S1(=O)=O (single isomer, unassigned; (-)) [Example 59, (−)-2-(5-(6-fluoro-1H-indol-3-yl)-3-methyl-1,1-dioxidobenzo[d]isothiazol-2(3H)-yl)-N-methylethane-1-sulfonamide] | 425 nM |
| CC1c2cc(-c3c[nH]c4cc(F)ccc34)ccc2S(=O)(=O)N1CCS(N)(=O)=O (single isomer, unassigned; (-)) [Example 62, (−)-2-(5-(6-fluoro-1H-indol-3-yl)-3-methyl-1,1-dioxidobenzo[d]-isothiazol-2(3H)-yl)ethane-1-sulfonamide] | 67 nM |
| CC1c2cc(-c3c[nH]c4cc(F)ccc34)ccc2S(=O)(=O)N1CCO (single isomer, unassigned; (-)) [Example 64, (−)-5-(6-fluoro-1H-indol-3-yl)-2-(2-hydroxyethyl)-3-methyl-2,3-dihydrobenzo[d]isothiazole 1,1-dioxide] | 322 nM |
| CC1c2cc(-c3c[nH]c4cc(F)ccc34)ccc2S(=O)(=O)N1CCN1CCNCC1=O (single isomer, unassigned; (-)) [Example 65, (−)1-(2-(5-(6-fluoro-1H-indol-3-yl)-3-methyl-1,1-dioxidobenzo[d]isothiazol-2(3H)-yl)ethyl)piperazin-2-one] | 546 nM |
| Cc1cc(O)n(CCN2C(C)c3cc(-c4c[nH]c5cc(F)ccc45)ccc3S2(=O)=O)n1 (single isomer, unassigned; (-)) [Example 68, (−)-5-(6-fluoro-1H-indol-3-yl)-2-(2-(5-hydroxy-3-methyl-1H-pyrazol-1-yl)ethyl)-3-methyl-2,3-dihydrobenzo[d]isothiazole 1,1-dioxide] | 3460 nM |
| CC1c2cc(-c3c[nH]c4cc(F)ccc34)ccc2S(=O)(=O)N1CCN1CCOC1=O (single isomer, unassigned; (-)) [Example 70, (−)-3-(2-(5-(6-fluoro-1H-indol-3-yl)-3-methyl-1,1-dioxidobenzo[d]isothiazol-2(3H)-yl)ethyl)oxazolidin-2-one] | 50 nM |
| CC(=O)N1CCC(N2C(C)c3cc(-c4c[nH]c5cc(F)ccc45)ccc3S2(=O)=O)CC1 (single isomer, unassigned; (-)) [Example 72, (−)-1-(4-(5-(6-fluoro-1H-indol-3-yl)-3-methyl-1,1-dioxidobenzo[d]isothiazol-2(3H)-yl)piperidin-1-yl)ethanone] | 64 nM |
| CC(=O)N1CCC(N2C(C)c3cc(-c4c[nH]c5cc(F)ccc45)ccc3S2(=O)=O)C1 (single isomer, unassigned; (-)) [Example 75, (−)-1-(3-(5-(6-fluoro-1H-indol-3-yl)-3-methyl-1,1-dioxidobenzo[d]isothiazol-2(3H)-yl)pyrrolidin-1-yl)ethanone] | 49 nM |
| CC(=O)N1CCC(N2C(C)c3cc(-c4c[nH]c5cc(F)ccc45)ccc3S2(=O)=O)C1 (single isomer, unassigned; (-)) [Example 76, (−)-1-(3-(5-(6-fluoro-1H-indol-3-yl)-3-methyl-1,1-dioxidobenzo[d]isothiazol-2(3H)-yl)pyrrolidin-1-yl)ethanone] | 61 nM |
